Experimental data from patent publication US20070219220A1, “Pyrazolopyrimidinethione Derivatives, Salts and Solvates Thereof, Preparation Methods and Use Thereof” (priority 2003, published 2007).
Like-named read-outs stand apart in the source and are kept apart here. Marks after values point to notes of the source that are not given here.

What was measured:
rats with testis removed [1] = assay: Penile erection caused by stimulating electric current in rats with testes removed (Example 7); type: in vivo, wistar rats; details: for penile swelling time (in words) / latent period of the penile erection (in words): compared with control; for latent period of the penile erection (in words): P<0.001; for Latent period / Swelling time: stimulation 35 min after administration
Source text: Methods: Forty healthy adult male wistar rats were used in the study, with the body weight ranging from 230 g to 250 g. The rats were anesthetized with sodium pentobarbital, and their testes were squeezed into the scrotum. After sterilization, the scrotum was dissected with an operation knife. The testes and epididymis were taken out respectively and then ligated. The wound were sutured and 100,000 unit of penicillin was administrated to each rat for three consecutive days. After breeding for one week, the rats were used for the tests. The animals may be used repeatedly and the interval between any two of the tests was one week. […] Sildenafil at the dose of 50 mg/kg was used as the positive control. The control group is (1% sodium carboxymethyl cellulose). In 35 min after the administration, the penis of the rats was stimulated with SEN-3201 stimulator (NIHON KOHDEN, Japan), with the following parameters: the stimulating voltage of 10V, the time interval (T1) of 250 msec, the deferment time (T2) of 10 msec, the duration (T3) of 500 μsec, and the stimulation rank (n) of 25. At the same time, the latent period (sec) of the penile erection and the penile swelling time (min) were recorded with a three-channel stop-watch.

mice with testis removed = assay: Sexual function (back climbing) of testis-removed mice (Example 10); type: in vivo, KM mice; details: for Incidence: back climbing within 2 hours after administration; for Times of back climbing / Number of the animals who performed back climbing: within 2 hours after administration; for Number of the animals who performed back climbing: 10 male mice
Source text: Methods: Forty healthy KM male mice with the body weight ranging from 28-32 g and forty healthy KM female mice with body weight ranging from 24-28 g were used. Each male mouse was anesthetized with sodium pentobarbital, and the testes were squeezed into the scrotum. After sterilization, the scrotum was dissected with an operating knife. The testes and epididymis were respectively taken out, and then ligated. The wound were sutured and each of the mice was administrated with 100,000 units of penicillin for three consecutive days. After being bred for one week, the mice were used for the tests. The animals may be employed repeatedly and the interval between any two tests was 72 hours. To the mice, the following compounds were orally administered: compound (1), compound (2), compound (3), and compound (4), each at the dose of 80 mg/kg and 40 mg/kg, respectively. The positive control agent was Sildenafil, at the dose of 80 mg/kg. The control group was given with 1% of sodium carboxymethyl cellulose. At 30 min after the administration, the male mice who had taken the above agents were put into the cages of female mice, with the male-to-female rate of 1:1. There were three males and three females in each cage. The times of back climbing on the female mice performed by the male mice, and the percentage of occurrence were observed within 2 hours after the administration.

[2] = Preliminary acute toxicity, Bliss method (Example 13); details: rat, in vivo, oral and intragastric administration, rats
Description: Experimental methods: the toxicity test was conducted by oral and intragastric administration of the pyrazolopyrimidinethione derivatives of the invention using the Bliss method.

anesthetized dogs = assay: Blood pressure, heart rate and respiration of anesthetized dogs (Example 11); type: in vivo; details: for arterial blood pressure (systolic and diastolic), heart rate and respiration (frequency and depth), in words: oral 40 mg/kg, in 3 hours after administration
Description: Methods: eight healthy male dogs with the body weight ranging from 12-15 kg were used. The dogs were anesthetized with 30 mg/kg of sodium pentobarbital. The femoral artery was dissected and inserted with a blood pressure transducer to record the blood pressure. The limbs were pierced with electrodes for recording the electrocardiogram. The respiration belt was wrapped around their chest and the respiration rate was recorded. The apparatus used was RM-6000 Polygraph system (NIHON KOHDEN, Japan). The changes in the arterial blood pressure, the heart rate, and the respiration were observed after the test compound was introduced into the stomach of the anesthetized dogs via 14# catheter.

healthy mice = details: within two hours, cited from earlier work
[3] = cited from earlier work
dog = details: cited from earlier work
rats with testis removed [4] = assay: Duration of penile erection in rats with testis removed (Example 8); type: in vivo, wistar rats; details: oral 50 mg/kg
anesthetized rats = assay: Blood pressure and heart rate of anesthetized rats (Example 12); type: in vivo, wistar rats
Description: Forty male wistar rats with the body weight ranging from 220-240 g were used in the study. Pharmaceuticals: compound (2) and Sildenafil, which were ground and then suspended with 1% of sodium carboxymethyl cellulose. Apparatus: RM-6000 eight-graph system (NIHON KOHDEN, Japan). The doses for administration and the division of the groups: solvent control group (abbreviated as the control group), 20 mg/kg of compound (2), 40 mg/kg of compound (2), 80 mg/kg of compound (2), and 50 mg/kg of Sildenafil. The administration route is through dodecadactylon. Methods: the male wistar rats were taken out and anesthetized with 35 mg/kg of sodium pentobarbital by injecting into the abdominal cavity, on the basis of their body weight. The rats were fixed on the operation table and were performed with the dissection operation of right carotid artery. The catheter with an external diameter of 1 mm was inserted into the right carotid artery. The blood pressure was measured and the electrodes positioned on the skin of the four limbs were used to record the electrocardiogram limb lead II. The catheter with an external diameter of 2 mm was inserted into the dodecadactylon via incision of the epigastric region, for the administration of the pharmaceuticals. RM-6000 eight-graph system (NIHON KOHDEN, Japan) was employed to record. Observation time: the value before administration, the values at 15, 30, 60, 120 and 180 min after the administration.

[5] = prior-art filings, background section
[6] = 50 mg/kg through dodecadactylon, at 15 min after administration
[7] = 50 mg/kg through dodecadactylon, at 30 min after administration
[8] = 50 mg/kg through dodecadactylon, at 60 min after administration
[9] = 50 mg/kg through dodecadactylon, at 120 min after administration
[10] = 50 mg/kg through dodecadactylon, value before administration

Compound: CCCc1nn(C)c2c(=S)[nH]c(-c3cc(S(=O)(=O)N4C[C@@H](C)N[C@@H](C)C4)ccc3OC)nc12 [Compound (3), 5-[2-methoxy-5-(cis-3,5-dimethylpiperazin-1-sulfonyl)phenyl]-1-methyl-3-n-propyl-1,6-dihydro-7H-pyrazolo[4,3-d]pyrimidin-7-thione]
- penile swelling time (in words) (rats with testis removed [1]): lengthened
- latent period of the penile erection (in words) (rats with testis removed [1]): evidently shortened
- Latent period (rats with testis removed [1]; oral 20 mg/kg): 32.8 ± 4.4 s
- Swelling time (rats with testis removed [1]; oral 20 mg/kg): 551.8 ± 350.8 s
- Latent period (rats with testis removed [1]; oral 40 mg/kg): 30.4 ± 2.6 s
- Swelling time (rats with testis removed [1]; oral 40 mg/kg): 809.6 ± 247.5 s
- Incidence (mice with testis removed; oral 40 mg/kg): 20%
- Times of back climbing (mice with testis removed; oral 40 mg/kg): 2
- Number of the animals who performed back climbing (mice with testis removed; oral 40 mg/kg): 2
- Incidence (mice with testis removed; oral 80 mg/kg): 30%
- Times of back climbing (mice with testis removed; oral 80 mg/kg): 4
- Number of the animals who performed back climbing (mice with testis removed; oral 80 mg/kg): 3
- LD50 [2]: 2500 mg/kg
- arterial blood pressure (systolic and diastolic), heart rate and respiration (frequency and depth), in words (anesthetized dogs): did not experience an evident change

Compound: CCCOc1ccc(S(=O)(=O)N2C[C@@H](C)N[C@@H](C)C2)cc1-c1nc2c(CCC)nn(C)c2c(=S)[nH]1 [Compound (4), 5-[2-propoxy-5-(cis-3,5-dimethylpiperazin-1-sulfonyl)phenyl]-1-methyl-3-n-propyl-1,6-dihydro-7H-pyrazolo[4,3-d]pyrimidin-7-thione]
- penile swelling time (in words) (rats with testis removed [1]): lengthened
- latent period of the penile erection (in words) (rats with testis removed [1]): evidently shortened
- Incidence (mice with testis removed; oral 40 mg/kg): 20%
- Times of back climbing (mice with testis removed; oral 40 mg/kg): 3
- Number of the animals who performed back climbing (mice with testis removed; oral 40 mg/kg): 2
- Incidence (mice with testis removed; oral 80 mg/kg): 30%
- Times of back climbing (mice with testis removed; oral 80 mg/kg): 5
- Number of the animals who performed back climbing (mice with testis removed; oral 80 mg/kg): 3
- LD50 [2]: > 3000 mg/kg
- arterial blood pressure (systolic and diastolic), heart rate and respiration (frequency and depth), in words (anesthetized dogs): did not experience an evident change

Compound: CCCc1nn(CC)c2c(=O)[nH]c(-c3cc(S(=O)(=O)N4C[C@@H](C)N[C@@H](C)C4)ccc3OCC)nc12 [5-[2-ethoxy-5-(cis-3,5-dimethylpiperazine-1-sulfonyl)phenyl]-1-ethyl-3-n-propyl-1,6-dihydro-7H-pyrazolopyrimidin-7-one]
- occurrences of back climbing (healthy mice; oral 15 mg/kg): 56.6%
- times of back climbing on the female mice performed by the male mice (healthy mice; oral 15 mg/kg): 43
- occurrences of back climbing (healthy mice; oral 30 mg/kg): 62.5%
- times of back climbing on the female mice performed by the male mice (healthy mice; oral 30 mg/kg): 53
- LD50 [3, 5]: greater than 2000 mg/kg
- diastolic pressure and heart rate (in words) (dog): dramatically decrease diastolic pressure and increase heart rate

Compound: CCCc1nn(C)c2c(=O)[nH]c(-c3cc(S(=O)(=O)N4CCN(C)CC4)ccc3OCC)nc12 [Sildenafil, reference compound]
- Latent period (rats with testis removed [1]; oral 50 mg/kg): 28.9 ± 1.7 s
- Swelling time (rats with testis removed [1]; oral 50 mg/kg): 2272.5 ± 326.2 s
- Incidence (mice with testis removed; oral 80 mg/kg): 70%
- Number of the animals who performed back climbing (mice with testis removed; oral 80 mg/kg): 6*
- occurrences of back climbing (healthy mice; oral 50 mg/kg): 50%
- times of back climbing on the female mice performed by the male mice (healthy mice; oral 50 mg/kg): 19
- how long the penile swelling effect lasts after administration (rats with testis removed [4]): about 1 hour
- Penile swelling time (rats with testis removed [4]; at 1 h after administration): 1067.0 ± 204.5 s
- Penile swelling time (rats with testis removed [4]; at 3 h after administration): 44.0 ± 11.3 s
- penile swelling time compared with control group (in words) (rats with testis removed [4]; at 3 hr after the administration): shorter than that of the control group
- Penile swelling time (rats with testis removed [4]; at 6 h after administration): 38.8 ± 5.6 s
- Penile swelling time (rats with testis removed [4]; at 24 h after administration): 61.0 ± 8.7 s
- Penile swelling time (rats with testis removed [4]; value before administration): 62.8 ± 7.7 s
- LD50 ([3]; as reported in Chinese Journal of Clinical Pharmacology and Therapeutics (1999, 4(3): 237-240)): 635 mg/kg
- LD50 [3, 5]: 635 mg/kg
- blood pressure (in words) (anesthetized rats; 50 mg/kg through dodecadactylon): began to decrease at 15 min after the administration
- Heart rate (anesthetized rats; [6]): 445 ± 29.7 times/min
- Systolic pressure (anesthetized rats; [6]): 90 ± 29.7 mmHg
- diastolic pressure (anesthetized rats; [6]): 68 ± 29.7 mmHg
- Heart rate (anesthetized rats; [7]): 444 ± 29.6 times/min
- Systolic pressure (anesthetized rats; [7]): 90 ± 29.6 mmHg
- diastolic pressure (anesthetized rats; [7]): 70 ± 29.6 mmHg
- Heart rate (anesthetized rats; [8]): 437 ± 22.8 times/min
- Systolic pressure (anesthetized rats; [8]): 88 ± 22.9 mmHg
- diastolic pressure (anesthetized rats; [8]): 68 ± 22.9 mmHg
- Heart rate (anesthetized rats; [9]): 439 ± 22.6 times/min
- Systolic pressure (anesthetized rats; [9]): 93 ± 22.6 mmHg
- diastolic pressure (anesthetized rats; [9]): 71 ± 22.6 mmHg
- Heart rate (anesthetized rats; 50 mg/kg through dodecadactylon, before administration): 429 ± 26.1 times/min
- Systolic pressure (anesthetized rats; [10]): 120 ± 10.6 mmHg
- diastolic pressure (anesthetized rats; [10]): 98 ± 16.0 mmHg
- effect on the heart rate (in words) (anesthetized rats; 50 mg/kg, at 15 and 30 minutes after administration): increasing the heart rate
- blood pressure (in words) (anesthetized dogs; Sildenafil 40 mg/kg, mainly diastolic pressure): apparent effect of decreasing the blood pressure

Compound: CCCc1nn(C)c2c(=O)[nH]c(-c3cc(S(=O)(=O)N4C[C@@H](C)N[C@@H](C)C4)ccc3OCC)nc12 [5-[2-ethoxy-5-(cis-3,5-dimethylpiperazin-1-sulfonyl)phenyl]-1-methyl-3-n-propyl-1,6-dihydro-7H-pyrazolo[4,3d]pyrimidin-7-one]
- LD50 [3, 5]: 772.5 to 1052.1 mg/kg

Compound: CCCc1nn(CC)c2c(=S)[nH]c(-c3cc(S(=O)(=O)N4C[C@@H](C)N[C@@H](C)C4)ccc3OCC)nc12 [Compound (1), 5-[2-ethoxy-5-(cis-3,5-dimethylpiperazin-1-sulfonyl)phenyl]-1-ethyl-3-n-propyl-1,6-dihydro-7H-pyrazolo[4,3-d]pyrimidin-7-thione]
- penile swelling time (in words) (rats with testis removed [1]): lengthened
- latent period of the penile erection (in words) (rats with testis removed [1]): evidently shortened
- penile swelling time compared with positive control sildenafil (in words) (rats with testis removed [1]; compared with sildenafil 50 mg/kg): more evident
- Latent period (rats with testis removed [1]; oral 20 mg/kg): 28.8 ± 1.7 s
- Swelling time (rats with testis removed [1]; oral 20 mg/kg): 1305.1 ± 588.8 s
- Latent period (rats with testis removed [1]; oral 40 mg/kg): 29.5 ± 4.2 s
- Swelling time (rats with testis removed [1]; oral 40 mg/kg): 2943.1 ± 552.9 s
- Incidence (mice with testis removed; oral 40 mg/kg): 30%
- Times of back climbing (mice with testis removed; oral 40 mg/kg): 4
- Number of the animals who performed back climbing (mice with testis removed; oral 40 mg/kg): 3
- Incidence (mice with testis removed; oral 80 mg/kg): 40%
- Times of back climbing (mice with testis removed; oral 80 mg/kg): 7*
- Number of the animals who performed back climbing (mice with testis removed; oral 80 mg/kg): 4
- LD50 [2]: > 3000 mg/kg
- arterial blood pressure (systolic and diastolic), heart rate and respiration (frequency and depth), in words (anesthetized dogs): did not experience an evident change
